Results reported in patent publication US5512464A, “Method of producing high fructose corn syrup from glucose using noble gases” (American Air Liquide, priority 1994, dated 1996).
“Also recorded” adds a separate entry of the source.

How the values were obtained:
glucose isomerase [1] = target: T1, glucose isomerase (Streptomyces murinus, UniProt P37031); test: Effect of gases on glucose isomerase reaction (vial runs, general statements); type: biochemical; settings: for order of enhancing effect: glucose isomerase, generally observed
T1 construct: purchased Novo Sweetzyme T
T1 sequence (P37031 whole entry): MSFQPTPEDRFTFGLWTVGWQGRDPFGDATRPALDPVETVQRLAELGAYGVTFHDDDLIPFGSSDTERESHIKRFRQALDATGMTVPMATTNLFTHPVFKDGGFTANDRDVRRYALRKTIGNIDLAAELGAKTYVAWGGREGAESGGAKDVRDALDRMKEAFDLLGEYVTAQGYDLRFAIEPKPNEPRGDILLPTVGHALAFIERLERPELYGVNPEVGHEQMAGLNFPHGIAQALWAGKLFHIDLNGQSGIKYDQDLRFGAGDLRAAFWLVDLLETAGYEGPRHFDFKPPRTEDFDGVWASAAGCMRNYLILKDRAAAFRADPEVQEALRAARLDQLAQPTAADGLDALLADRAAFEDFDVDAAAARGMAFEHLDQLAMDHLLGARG
Protocol: Two sets of 125 ml serum vials are prepared for each studied gas, one containing the glucose substrate solution (80 ml per vial) and the other one containing Sweetzyme T (5 g dry/vial).
On day D, place the substrate vials into a shaking water bath (60° C., 140 rpm). Allow them to equilibrate in temperature. For each substrate vial, fill a 60 cc B-D syringe with the appropriate gas or gas mixture and inject it in the vial. Remove the substrate vial from the shaker bath and replace it with the corresponding enzyme vial. Allow the positive pressure in the substrate vial to fill the syringe with glucose solution up to 60 ml. Stopper syringe needle with a septum. Repeat this procedure for each vial. When all the substrate vials have been sampled, inject the content of each syringe (60 ml of gas-saturated glucose solution) into the corresponding enzyme vial. The enzyme vials are injected at 2 minute intervals. The time of the injection determine t0 for each vial.
The respective concentrations of glucose and fructose in the samples are determined by High Pressure Liquid Chromatography.

amyloglucosidase = target: T2, amyloglucosidase (Aspergillus niger, UniProt P69328); test: Effect of noble gases on amyloglucosidase reaction; type: biochemical; settings: amylyoglucoside (so in the source), generally observed
T2 construct: purchased Sigma Chemical A-7420
T2 sequence (P69328 25-640): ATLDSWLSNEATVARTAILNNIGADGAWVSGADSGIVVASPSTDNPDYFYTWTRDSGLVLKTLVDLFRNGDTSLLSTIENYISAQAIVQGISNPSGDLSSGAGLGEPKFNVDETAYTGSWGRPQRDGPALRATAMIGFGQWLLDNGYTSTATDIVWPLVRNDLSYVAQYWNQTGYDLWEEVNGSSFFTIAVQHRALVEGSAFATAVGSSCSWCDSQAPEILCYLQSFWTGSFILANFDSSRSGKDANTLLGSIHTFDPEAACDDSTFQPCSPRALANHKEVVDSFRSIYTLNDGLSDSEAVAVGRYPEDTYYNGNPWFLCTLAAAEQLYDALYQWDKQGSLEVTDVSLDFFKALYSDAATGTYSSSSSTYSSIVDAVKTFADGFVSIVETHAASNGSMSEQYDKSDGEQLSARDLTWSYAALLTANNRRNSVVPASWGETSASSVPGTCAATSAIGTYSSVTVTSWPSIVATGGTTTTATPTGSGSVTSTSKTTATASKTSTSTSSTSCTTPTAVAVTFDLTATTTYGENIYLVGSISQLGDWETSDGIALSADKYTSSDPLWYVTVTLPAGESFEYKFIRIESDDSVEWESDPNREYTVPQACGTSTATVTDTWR
Text: 1. Reaction Principle: [drawing 3] 2. Solution Preparation:

glucose isomerase [2] = target: T1, glucose isomerase; test: Glucose isomerase column runs under gas saturation (Example 7); type: biochemical; settings: for reaching point of equilibrium (fructose to glucose vs glucose to fructose conversion): 100 hr run, gas saturated columns, FIG. 13; for averages of fructose to glucose and glucose to fructose conversions: averages for each gas, FIG. 15; for conversion of glucose to fructose (activity+flow rate difference): lower flow rate, under Ne, Ar and N2, FIG. 11
Protocol: A comprehensive experiment was undertaken in order to relate the effects of noble gases upon the important process parameters of temperature, flow rate, enzyme activity and reaction equilibrium. In this experiment, four identical jacketed 1.6×35 cm (70 cc bed volume) columns containing 15 grams dry weight (40 cc bed volume) of the glucose isomerase packing used in the Vial. Runs were prepared according to the protocol outlined above. The columns and substrates were saturated with the gas of interest from a choice of argon, neon, nitrogen, krypton, xenon, helium, or a decile combination of any two or three of these.
One column was run at 0.2 ml/min at 50°, one at 0.2 ml/min at 60°, one at 0.5 ml/min at 50°, and one at 0.5 ml/min at 60°. […] During the first set of experiments, glucose feedstock (as prepared above) was used. During the second set, fructose feedstock of identical concentration was used to analyze the reverse reaction.
Data collected included flow rate, % glucose, % fructose, quantitative evaluation of fructose and glucose, dry solids, temperature, and residual gases.
Comparison of the data for each combination of experiments allows the determination of the effect of the gas, the temperature, the flow rate, the enzyme activity, and the reaction equilibrium. These are each determined independently, then the contribution of each parameter to the others can be calculated. For instance, elevating the temperature increases the flow rate, while lowering temperature and increasing the flow rate maximizes gas effects.

α-amylase = test: Effect of noble gases on α-amylase reaction; type: biochemical, Bacillus licheniformis; settings: generally observed
Text: PNPG7 is p-nitrophenyl-α-D-maltoheptaoside.
1. Reaction Principle: [drawing 3] 2.

Gas solubility = type: physicochemical
[3] = system: amylase, amyloglucosidase and glucose isomerase; test: Enzymatic reaction enhancement in the HFCS process (all three enzymes); type: biochemical
Text: Generally, in accordance with the present invention, enzymatic reaction enhancements measured in terms of either rate of yield or stability parameters, and are relative to reactions conducted in air or with no added gases, or to reactions run with added nitrogen, or to a combination of the above. Depending upon the relative controls, enhancements of rate between about 0 and 20% and yield enhancements of about 0 to 5% for glucose isomerase have been obtained.

| Structure (SMILES) | inhibition of glucose isomerase / Sweetzyme T activity (glucose isomerase [1]) | order of enhancing effect (glucose isomerase [1]) | order of enhancing effect (amyloglucosidase) | reaching point of equilibrium (fructose to glucose vs glucose to fructose conversion) (glucose isomerase [2]) | averages of fructose to glucose and glucose to fructose conversions (glucose isomerase [2]) | conversion of glucose to fructose (activity+flow rate difference) (glucose isomerase [2]) | order of enhancing effect (α-amylase) | solubility (Gas solubility) | effectiveness in enhancing enzymatic activity [3] |
| --- | --- | --- | --- | --- | --- | --- | --- | --- | --- |
| O=O [oxygen] | greatly inhibited; also recorded: inhibitor | – | – | – | – | – | – | – | – |
| [Ne] [neon] | – | Ne>Ar>Kr>Xe>He | Xe>Ar>Ne>Kr>He | reach equilibrium before nitrogen saturated columns | improvement | significant but lesser enhancement over nitrogen | Xe>Ar>Ne>Kr>He | – | – |
| [He] [helium] | – | Ne>Ar>Kr>Xe>He | Xe>Ar>Ne>Kr>He | – | – | – | Xe>Ar>Ne>Kr>He | low solubility | effective |
| [Kr] [krypton] | – | Ne>Ar>Kr>Xe>He | Xe>Ar>Ne>Kr>He | – | – | – | Xe>Ar>Ne>Kr>He | – | – |
| [Ar] [argon] | – | Ne>Ar>Kr>Xe>He | Xe>Ar>Ne>Kr>He | reach equilibrium before nitrogen saturated columns | improvement | highest conversion | Xe>Ar>Ne>Kr>He | – | – |
| [Xe] [xenon] | – | Ne>Ar>Kr>Xe>He | Xe>Ar>Ne>Kr>He | – | – | – | Xe>Ar>Ne>Kr>He | – | – |
